Test results as given in PubChem BioAssay AID1259407 (Chemical Carcinogenesis Research Information System (CCRIS), 2018).
The source made the active and inactive calls. No rule for the calls is given here.

Test system: CCRIS mutagenicity, Ames/micronucleus/aberration tests
Experiment: CCRIS mutagenicity studies

SMILES: Oc1ccccc1-c1ccccc1
- mutagenic call (Test System: AMES SALMONELLA TYPHIMURIUM, Strain/Indicator: TA98, Metabolic Activation: HAMSTER, LIVER, S-9, AROCLOR 1254 (10%), Method: STANDARD PLATE): inactive; negative
- mutagenic call (Test System: AMES SALMONELLA TYPHIMURIUM, Strain/Indicator: TA98, Metabolic Activation: HAMSTER, LIVER, S-9, AROCLOR 1254, Method: PREINCUBATION): inactive; negative
- mutagenic call (Test System: AMES SALMONELLA TYPHIMURIUM, Strain/Indicator: TA98, Metabolic Activation: NONE, Method: HOST-MEDIATED): inactive; negative
- mutagenic call (Test System: AMES SALMONELLA TYPHIMURIUM, Strain/Indicator: TA98, Metabolic Activation: NONE, Method: PREINCUBATION): inactive; negative
- mutagenic call (Test System: AMES SALMONELLA TYPHIMURIUM, Strain/Indicator: TA98, Metabolic Activation: NONE, Method: STANDARD PLATE): inactive; negative
- mutagenic call (Test System: AMES SALMONELLA TYPHIMURIUM, Strain/Indicator: TA98, Metabolic Activation: RAT, LIVER, S-9, AROCLOR 1254 (10%), Method: STANDARD PLATE): inactive; negative
- mutagenic call (Test System: AMES SALMONELLA TYPHIMURIUM, Strain/Indicator: TA98, Metabolic Activation: RAT, LIVER, S-9, AROCLOR 1254, Method: PREINCUBATION): inactive; negative
- mutagenic call (Test System: AMES SALMONELLA TYPHIMURIUM, Strain/Indicator: TA100, Metabolic Activation: HAMSTER, LIVER, S-9, AROCLOR 1254 (10%), Method: STANDARD PLATE): inactive; negative
- mutagenic call (Test System: AMES SALMONELLA TYPHIMURIUM, Strain/Indicator: TA100, Metabolic Activation: HAMSTER, LIVER, S-9, AROCLOR 1254, Method: PREINCUBATION): inactive; negative
- mutagenic call (Test System: AMES SALMONELLA TYPHIMURIUM, Strain/Indicator: TA100, Metabolic Activation: NONE, Method: HOST-MEDIATED): inactive; negative
- mutagenic call (Test System: AMES SALMONELLA TYPHIMURIUM, Strain/Indicator: TA100, Metabolic Activation: NONE, Method: PREINCUBATION): inactive; negative
- mutagenic call (Test System: AMES SALMONELLA TYPHIMURIUM, Strain/Indicator: TA100, Metabolic Activation: NONE, Method: STANDARD PLATE): inactive; negative
- mutagenic call (Test System: AMES SALMONELLA TYPHIMURIUM, Strain/Indicator: TA100, Metabolic Activation: RAT, LIVER, S-9, AROCLOR 1254 (10%), Method: STANDARD PLATE): inactive; negative
- mutagenic call (Test System: AMES SALMONELLA TYPHIMURIUM, Strain/Indicator: TA100, Metabolic Activation: RAT, LIVER, S-9, AROCLOR 1254, Method: PREINCUBATION): inactive; negative
- mutagenic call (Test System: AMES SALMONELLA TYPHIMURIUM, Strain/Indicator: TA1535, Metabolic Activation: HAMSTER, LIVER, S-9, AROCLOR 1254 (10%), Method: STANDARD PLATE): inactive; negative
- mutagenic call (Test System: AMES SALMONELLA TYPHIMURIUM, Strain/Indicator: TA1535, Metabolic Activation: HAMSTER, LIVER, S-9, AROCLOR 1254, Method: PREINCUBATION): inactive; negative
- mutagenic call (Test System: AMES SALMONELLA TYPHIMURIUM, Strain/Indicator: TA1535, Metabolic Activation: NONE, Method: PREINCUBATION): active; positive
- mutagenic call (Test System: AMES SALMONELLA TYPHIMURIUM, Strain/Indicator: TA1535, Metabolic Activation: NONE, Method: STANDARD PLATE): inactive; negative
- mutagenic call (Test System: AMES SALMONELLA TYPHIMURIUM, Strain/Indicator: TA1535, Metabolic Activation: RAT, LIVER, S-9, AROCLOR 1254 (10%), Method: STANDARD PLATE): inactive; negative
- mutagenic call (Test System: AMES SALMONELLA TYPHIMURIUM, Strain/Indicator: TA1535, Metabolic Activation: RAT, LIVER, S-9, AROCLOR 1254, Method: PREINCUBATION): inactive; negative
- mutagenic call (Test System: AMES SALMONELLA TYPHIMURIUM, Strain/Indicator: TA1537, Metabolic Activation: HAMSTER, LIVER, S-9, AROCLOR 1254 (10%), Method: STANDARD PLATE): inactive; negative
- mutagenic call (Test System: AMES SALMONELLA TYPHIMURIUM, Strain/Indicator: TA1537, Metabolic Activation: HAMSTER, LIVER, S-9, AROCLOR 1254, Method: PREINCUBATION): inactive; negative
- mutagenic call (Test System: AMES SALMONELLA TYPHIMURIUM, Strain/Indicator: TA1537, Metabolic Activation: NONE, Method: PREINCUBATION): inactive; negative
- mutagenic call (Test System: AMES SALMONELLA TYPHIMURIUM, Strain/Indicator: TA1537, Metabolic Activation: NONE, Method: STANDARD PLATE): inactive; negative
- mutagenic call (Test System: AMES SALMONELLA TYPHIMURIUM, Strain/Indicator: TA1537, Metabolic Activation: RAT, LIVER, S-9, AROCLOR 1254 (10%), Method: STANDARD PLATE): inactive; negative
- mutagenic call (Test System: AMES SALMONELLA TYPHIMURIUM, Strain/Indicator: TA1537, Metabolic Activation: RAT, LIVER, S-9, AROCLOR 1254, Method: PREINCUBATION): inactive; negative
- mutagenic call (Test System: AMES SALMONELLA TYPHIMURIUM, Strain/Indicator: TA1538, Metabolic Activation: HAMSTER, LIVER, S-9, AROCLOR 1254 (10%), Method: STANDARD PLATE): inactive; negative
- mutagenic call (Test System: AMES SALMONELLA TYPHIMURIUM, Strain/Indicator: TA1538, Metabolic Activation: NONE, Method: STANDARD PLATE): inactive; negative
- mutagenic call (Test System: AMES SALMONELLA TYPHIMURIUM, Strain/Indicator: TA1538, Metabolic Activation: RAT, LIVER, S-9, AROCLOR 1254 (10%), Method: STANDARD PLATE): inactive; negative
- mutagenic call (Test System: CHO/HGPRT, Strain/Indicator: CHO/GIEMSA, Metabolic Activation: NONE, Method: STANDARD PLATE): active; positive
- mutagenic call (Test System: CHO/HGPRT, Strain/Indicator: CHO/GIEMSA, Metabolic Activation: RAT, LIVER, S-9, AROCLOR 1254, Method: STANDARD PLATE): inactive; negative
- mutagenic call (Test System: E. COLI, Strain/Indicator: WP2, Metabolic Activation: NONE, Method: HOST-MEDIATED): inactive; negative
- mutagenic call (Test System: Mouse lymphoma, Strain/Indicator: L5178Y (tk+/tk-), Metabolic Activation: None, Method: Suspension/plate): inactive; negative
- mutagenic call (Test System: Mouse lymphoma, Strain/Indicator: L5178Y (tk+/tk-), Metabolic Activation: Rat, Liver, S-9, Aroclor 1254, Method: Suspension/plate): active; equivocal (previously evaluated positive)
